Several values for one entry are separate records, joined by “and”; a condition that tells them apart may be missing. Equal values may be shown once. Read-outs that look alike come from different tables or passages of the source.
Experiments:
[1] = system: rat 9L-SF gliosarcoma cells; experiment: Colony formation assay with 9L-SF cells
[2] = system: M9-ENL1 cells; experiment: M9-ENL1 cell assay; type: cell-based; conditions: M9-ENL1, 24 h
[3] = system: leukemia cell lines; experiment: NCI-60 five-dose screen, leukemia sub-panel; type: cell-based; conditions: Homo sapiens, read-out: GI50 values in the range
[4] = system: panel of 60 human cancer cell lines; experiment: NCI-60 five-dose screen, whole panel; type: cell-based
[5] = system: primary AML cell specimen AML03; experiment: Primary AML cell assay; type: cell-based; conditions: Homo sapiens, 24 h
[6] = system: primary AML cell specimens; experiment: Primary AML cell assay, specimens taken together; type: cell-based; conditions: Homo sapiens

For `C=C1C(=O)O[C@H]2[C@H]1CC/C(COC(=O)OC/C1=C/CC[C@@]3(C)O[C@H]3[C@H]3OC(=O)C(=C)[C@@H]3CC1)=C\CC[C@@]1(C)O[C@@H]21` [compound 8, bis-E-(((1aR,7aS,10aS,10bS)-1a-Methyl-8-methylene-9-oxo-1a,2,3,6,7,7a,8,9,10a,10b-decahydrooxireno[2',3':9,10]cyclodeca[1,2-b]furan-5-yl)methyl) carbonate], the “fold more cytotoxic than DMAPT” value ([1]; clonogenic survival, 48 h, at a concentration of 10 μM) was 1 × 10^6 fold and 1.08 × 10^6 fold, the “fold more toxic than compound 7f” value ([1]; colony formation assay, at 10 μM) was 3,564 fold and the EC50 [2] was 500 nM.
With `C=C1C(=O)O[C@H]2[C@H]1CC/C(COC(=O)NCCCCCCCCNC(=O)OC/C1=C/CC[C@@]3(C)O[C@H]3[C@H]3OC(=O)C(=C)[C@@H]3CC1)=C\CC[C@@]1(C)O[C@@H]21` [7f, bis-E-(((1aR,7aS,10aS,10bS)-1a-Methyl-8-methylene-9-oxo-1a,2,3,6,7,7a,8,9,10a,10b-decahydrooxireno[2',3':9,10]cyclodeca[1,2-b]furan-5-yl)methyl)octane-1,8-diyldicarbamate] the GI50 [3] was 250 to 780 nM, the GI50 ([4]; 60 cell, read-out: GI50 values in the nanomolar range, against most of the solid tumor cell lines in the 60 cell panel) was 160 to 999 nM and the GI50 ([4]; read-out: GI50 values, against more than 50% of the cancer cell lines in the panel) was less than 500 nM.
`C=C1C(=O)O[C@H]2[C@H]1CC/C(COC(=O)OCCCCCOC(=O)OC/C1=C/CC[C@@]3(C)O[C@H]3[C@H]3OC(=O)C(=C)[C@@H]3CC1)=C\CC[C@@]1(C)O[C@@H]21` [7j, bis-E-(((1aR,7aS,10aS,10bS)-1a-Methyl-8-methylene-9-oxo-1a,2,3,6,7,7a,8,9,10a,10b-decahydrooxireno[2',3':9,10]cyclodeca[1,2-b]furan-5-yl)methyl)pentane-1,5-diyldicarbonate] gave an EC50 [5] of 1200 nM.
Compound `C=C1C(=O)O[C@H]2[C@H]1CC/C(COC(=O)NCCCCCNC(=O)OC/C1=C/CC[C@@]3(C)O[C@H]3[C@H]3OC(=O)C(=C)[C@@H]3CC1)=C\CC[C@@]1(C)O[C@@H]21` [7c, bis-E-(((1aR,7aS,10aS,10bS)-1a-Methyl-8-methylene-9-oxo-1a,2,3,6,7,7a,8,9,10a,10b-decahydrooxireno[2',3':9,10]cyclodeca[1,2-b]furan-5-yl)methyl)pentane-1,5-diyldicarbamate] has a GI50 [3] of 250 to 780 nM.
In the case of `C=C1C(=O)O[C@@H]2[C@H]3O[C@]3(C)CC/C=C(\C)CC[C@@H]12` [compound 1, parthenolide], the EC50 [5] is reported as 5000 nM, the EC50 ([6]; AML01, read-out: EC50 (range)) is reported as 2500 to 8000 nM and the EC50 ([6]; read-out: EC50 (range)) is reported as 2500 to 16000 nM.
Work on `C=C1C(=O)O[C@H]2[C@H]1CC/C(COC(=O)NCCCCNC(=O)OC/C1=C/CC[C@@]3(C)O[C@H]3[C@H]3OC(=O)C(=C)[C@@H]3CC1)=C\CC[C@@]1(C)O[C@@H]21` [7b, bis-E-(((1aR,7aS,10aS,10bS)-1a-Methyl-8-methylene-9-oxo-1a,2,3,6,7,7a,8,9,10a,10b-decahydrooxireno[2',3':9,10]cyclodeca[1,2-b]furan-5-yl)methyl)butane-1,4-diyldicarbamate] yielded a GI50 [3] of 250 to 780 nM.

From paper PMC4959447 (Journal of medicinal chemistry, 2015)
